The experiment relates to HBV. As to the kind of experiment: HBV replication inhibition assay (BDNA assay) in HepG2.2.15 cells. Particulars: HepG2.2.15 cells, read-out: DNA EC50. Format: cell-based. An outline of the steps: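 Supernatant encapsidated HBV DNA was measured by bDNA after DNase digestion and proteinase K release. Stably HBV-integrated HepG2.2.15 cells had two 3-day compound exposures (0.5% DMSO). Signals were background-subtracted and normalized to DMSO wells, and EC50 was obtained by four-parameter fit.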

Setting [1] is: Hepatitis B virus, HepG2.2.15, HBV replication assay (BDNA assay).
Setting [2] is: HBV replication assay (BDNA assay).

What is called EC50 is the midpoint of the concentration-response curve.

Like-named read-outs stand apart in the source and are kept apart here.

Regarding `CN1OC(CO)Cn2nc3c(c2C1=O)CN(C(=O)Nc1cccc(C(F)F)c1)CC3` (stereo not drawn) [Compound 021, N-(3-(difluoromethyl)phenyl)-4-(hydroxymethyl)-2-methyl-1-oxo-1,4,5,8,9,11-hexahydropyrido[4′,3′:3,4]pyrazolo[5,1-d][1,2,5]oxadiazepine-10(2H)-carboxamide], the 50% effective concentration (EC50) under setting [1] lay in the range of 1 to 100 nM. Consider `CN1OC(CO)Cn2nc3c(c2C1=O)CN(C(=O)Nc1cc(F)c(F)c(F)c1)CC3` (stereo not drawn) [Compound 006, 4-(hydroxymethyl)-2-methyl-1-oxo-N-(3,4,5-trifluorophenyl)-1,4,5,8,9,11-hexahydropyrido[4′,3′:3,4]pyrazolo[5,1-d][1,2,5]oxadiazepine-10(2H)-carboxamide], for which, under setting [1], the concentration giving a half-maximal response (EC50) was 1 to 100 nM.

Turning to `Cc1cc(NC(=O)N2Cc3c(nn4c3C(=O)N(C)OCC4)C[C@H]2C)ccc1F` [Compound 080, (R)—N-(4-fluoro-3-methylphenyl)-2,9-dimethyl-1-oxo-1,4,5,8,9,11-hexahydropyrido[4′,3′:3,4]pyrazolo[5,1-d][1,2,5]oxadiazepine-10(2H)-carboxamide], the EC50 under setting [1] fell in the range of 1 to 100 nM. On the same count and under the same terms, for `CC(=O)NCC1Cn2nc3c(c2C(=O)N(C)O1)CN(C(=O)Nc1ccc(F)c(C#N)c1)CC3` (single isomer, unassigned) [Compound 168_E1, (S*)-4-(acetamidomethyl)-N-(3-cyano-4-fluorophenyl)-2-methyl-1-oxo-1,4,5,8,9,11-hexahydropyrido[4′,3′:3,4]pyrazolo[5,1-d][1,2,5]oxadiazepine-10(2H)-carboxamide] the value was 1 to 100 nM. On the same count and under the same terms, the figure for `Cc1cccc(NC(=O)N2CCc3nn4c(c3C2)C(=O)N(C)OC(CO)C4)c1` (stereo not drawn) [Compound 002, 4-(hydroxymethyl)-2-methyl-1-oxo-N-(m-tolyl)-1,4,5,8,9,11-hexahydropyrido[4′,3′:3,4]pyrazolo[5,1-d][1,2,5]oxadiazepine-10(2H)-carboxamide] is 1 to 100 nM; for `CN(C)C(=O)NCC1Cn2nc3c(c2C(=O)N(C)O1)CN(C(=O)Nc1ccc(F)c(Cl)c1)CC3` (stereo not drawn) [Compound 204, N-(3-chloro-4-fluorophenyl)-4-((3,3-dimethylureido)methyl)-2-methyl-1-oxo-1,4,5,8,9,11-hexahydropyrido[4′,3′:3,4]pyrazolo[5,1-d][1,2,5]oxadiazepine-10(2H)-carboxamide] it is 1 to 100 nM; for `CN1OC(CNC(=O)C2CC2)Cn2nc3c(c2C1=O)CN(C(=O)Nc1ccc(F)c(Cl)c1)CC3` (stereo not drawn) [Compound 198, N-(3-chloro-4-fluorophenyl)-4-(cyclopropanecarboxamidomethyl)-2-methyl-1-oxo-1,4,5,8,9,11-hexahydropyrido[4′,3′:3,4]pyrazolo[5,1-d][1,2,5]oxadiazepine-10(2H)-carboxamide] it is 1 to 100 nM. For the compound `C[C@@H]1Cc2nn3c(c2CN1C(=O)Nc1cc(Br)c(F)cc1F)C(=O)N(C)OC(CN(C)C)C3` (stereo in doubt) [Compound 100_D2, (4R*,9R)—N-(5-bromo-2,4-difluorophenyl)-4-((dimethylamino)methyl)-2,9-dimethyl-1-oxo-1,4,5,8,9,11-hexahydropyrido[4′,3′:3,4]pyrazolo[5,1-d][1,2,5]oxadiazepine-10(2H)-carboxamide], the half-maximal effective concentration (EC50) under setting [2] lay in the range of 1 to 100 nM. As to `C[C@@H]1Cc2nn3c(c2CN1C(=O)Nc1ccc(F)c(C#N)c1)C(=O)N(C)N(CCO)CC3` [Compound 220, (R)—N-(3-Cyano-4-fluorophenyl)-3-(2-hydroxyethyl)-2,9-dimethyl-1-oxo-1,2,3,4,5,8,9,11-octahydro-10H-pyrido[4′,3′:3,4]pyrazolo[5,1-d][1,2,5]triazepine-10-carboxamide], under setting [1], the concentration for a half-maximal effect (EC50) lay in the range of 100 to 500 nM. The same measure, in the same setting: for `CC[C@H]1Cc2nn3c(c2CN1C(=O)Nc1ccc(F)c(Cl)c1)C(=O)N(C)O[C@H](CO)C3` (stereo in doubt) [Compound 109_D1, (4S*,9S*)—N-(3-chloro-4-fluorophenyl)-9-ethyl-4-(hydroxymethyl)-2-methyl-1-oxo-1,4,5,8,9,11-hexahydropyrido[4′,3′:3,4]pyrazolo[5,1-d][1,2,5]oxadiazepine-10(2H)-carboxamide] the value was 100 to 500 nM. On the same count and under the same terms, for `CN1OC(CNC(=O)CO)Cn2nc3c(c2C1=O)CN(C(=O)Nc1ccc(F)c(Cl)c1)CC3` (stereo not drawn) [Compound 206, N-(3-chloro-4-fluorophenyl)-4-((2-hydroxyacetamido)methyl)-2-methyl-1-oxo-1,4,5,8,9,11-hexahydropyrido[4′,3′:3,4]pyrazolo[5,1-d][1,2,5]oxadiazepine-10(2H)-carboxamide] the value was 1 to 100 nM.

Turning to `CN1N=C(CO)Cn2nc3c(c2C1=O)CN(C(=O)Nc1ccc(F)c(C#N)c1)CC3` [Compound 228, N-(3-cyano-4-fluorophenyl)-4-(hydroxymethyl)-2-methyl-1-oxo-1,2,5,8,9,11-hexahydro-10H-pyrido[4′,3′:3,4]pyrazolo[5,1-d][1,2,5]triazepine-10-carboxamide], under setting [1], the half-maximal effective concentration (EC50) lay in the range of 1 to 100 nM. `C[C@@H]1Cc2nn3c(c2CN1C(=O)Nc1ccc(F)c(C#N)c1)C(=O)N(C)OC(CNS(C)(=O)=O)C3` (single isomer, unassigned) [Compound 178_D1, (4S*,9R)—N-(3-cyano-4-fluorophenyl)-2,9-dimethyl-4-(methylsulfonamidomethyl)-1-oxo-1,4,5,8,9,11-hexahydropyrido[4′,3′:3,4]pyrazolo[5,1-d][1,2,5]oxadiazepine-10(2H)-carboxamide]: the EC50 under setting [2] lay in the range of 100 to 500 nM. Consider `CN(CC(F)F)C(=O)C1Cn2nc3c(c2C(=O)N(C)O1)CN(C(=O)Nc1ccc(F)c(Cl)c1)CC3` (stereo not drawn) [Compound 134, N10-(3-chloro-4-fluorophenyl)-N4-(2,2-difluoroethyl)-N4,2-dimethyl-1-oxo-1,4,5,8,9,11-hexahydropyrido[4′,3′:3,4]pyrazolo[5,1-d][1,2,5]oxadiazepine-4,10(2H)-dicarboxamide], for which the concentration giving a half-maximal response (EC50) under setting [1] is 1 to 100 nM. The same measure, in the same setting: for `CN(CC(F)(F)F)C(=O)C1Cn2nc3c(c2C(=O)N(C)O1)CN(C(=O)Nc1ccc(F)c(Cl)c1)CC3` (stereo not drawn) [Compound 133, N10-(3-chloro-4-fluorophenyl)-N4,2-dimethyl-1-oxo-N4-(2,2,2-trifluoroethyl)-1,4,5,8,9,11-hexahydropyrido[4′,3′:3,4]pyrazolo[5,1-d][1,2,5]oxadiazepine-4,10(2H)-dicarboxamide] the value was 1 to 100 nM; for `CN1OC(COCC(F)(F)F)Cn2nc3c(c2C1=O)CN(C(=O)Nc1ccc(F)c(Cl)c1)CC3` (stereo not drawn) [Compound 106, N-(3-chloro-4-fluoro-phenyl)-2-methyl-1-oxo-4-(2,2,2-trifluoroethoxymethyl)-5,8,9,11-tetrahydro-4H-pyrido[2,3]pyrazolo[2,4-d][1,2,5]oxadiazepine-10-carboxamide], 1 to 100 nM. Turning to `C[C@@H]1Cc2nn3c(c2CN1C(=O)Nc1ccc(F)c(C(F)(F)F)c1)C(=O)N(C)OC(CN)C3` (stereo in doubt) [Compound 116_D2, (4R*,9R)-4-(aminomethyl)-N-(4-fluoro-3-(trifluoromethyl)phenyl)-2,9-dimethyl-1-oxo-1,4,5,8,9,11-hexahydropyrido[4′,3′:3,4]pyrazolo[5,1-d][1,2,5]oxadiazepine-10(2H)-carboxamide], the concentration for a half-maximal effect (EC50) under setting [2] was in the range of 1 to 100 nM. Regarding `C[C@@H]1Cc2nn3c(c2CN1C(=O)Nc1ccc(F)c(C(F)(F)F)c1)C(=O)N(C)N(C)CC3` [Compound 225, (R)-N-(4-fluoro-3-(trifluoromethyl)phenyl)-2,3,9-trimethyl-1-oxo-1,2,3,4,5,8,9,11-octahydro-10H-pyrido[4′,3′:3,4]pyrazolo[5,1-d][1,2,5]triazepine-10-carboxamide], under setting [1], the EC50 was 1 to 100 nM. On the same count and under the same terms, for `CN1OC(CO)Cn2nc3c(c2C1=O)CN(C(=O)Nc1cc(Cl)ccc1F)CC3` (single isomer, unassigned) [Compound 139_E1, (S*)—N-(5-chloro-2-fluorophenyl)-4-(hydroxymethyl)-2-methyl-1-oxo-1,4,5,8,9,11-hexahydropyrido[4′,3′:3,4]pyrazolo[5,1-d][1,2,5]oxadiazepine-10(2H)-carboxamide] the value was 1 to 100 nM; for `CN1N=C(CO)Cn2nc3c(c2C1=O)CN(C(=O)Nc1ccc(F)c(Cl)c1)CC3` [Compound 227, N-(3-chloro-4-fluorophenyl)-4-(hydroxymethyl)-2-methyl-1-oxo-1,2,5,8,9,11-hexahydro-10H-pyrido[4′,3′:3,4]pyrazolo[5,1-d][1,2,5]triazepine-10-carboxamide], 1 to 100 nM; for `CC(=O)NCC1Cn2nc3c(c2C(=O)N(C)O1)CN(C(=O)Nc1ccc(F)c(Cl)c1)CC3` (stereo not drawn) [Compound 162, -(acetamidomethyl)-N-(3-chloro-4-fluoro-phenyl)-2-methyl-1-oxo-5,8,9,11-tetrahydro-4H-pyrido[2,3]pyrazolo[2,4-d][1,2,5]oxadiazepine-10-carboxamide], 1 to 100 nM.

The record behind these values is patent US10987359B2, “Oxadiazepinone derivatives and methods of treating hepatitis B infections” (priority 2016, dated 2021).
